Legend:
[1] = molecular target: Sodium-dependent serotonin transporter (Rattus norvegicus, UniProt P31652); experiment: Displacement of [3H]-paroxetine from SERT in rat cerebral cortex incubated for 10 mins by liquid scintillation counting method; format: tissue-based
Transporter = Transporter (Rattus norvegicus, UniProt Q63380); experiment: Displacement of [3H]-nisoxetine from NET in rat hippocampal membrane incubated for 8 hrs by liquid scintillation counting method; format: cell membranes, Hippocampus
Transporter, sequence (Q63380 whole entry): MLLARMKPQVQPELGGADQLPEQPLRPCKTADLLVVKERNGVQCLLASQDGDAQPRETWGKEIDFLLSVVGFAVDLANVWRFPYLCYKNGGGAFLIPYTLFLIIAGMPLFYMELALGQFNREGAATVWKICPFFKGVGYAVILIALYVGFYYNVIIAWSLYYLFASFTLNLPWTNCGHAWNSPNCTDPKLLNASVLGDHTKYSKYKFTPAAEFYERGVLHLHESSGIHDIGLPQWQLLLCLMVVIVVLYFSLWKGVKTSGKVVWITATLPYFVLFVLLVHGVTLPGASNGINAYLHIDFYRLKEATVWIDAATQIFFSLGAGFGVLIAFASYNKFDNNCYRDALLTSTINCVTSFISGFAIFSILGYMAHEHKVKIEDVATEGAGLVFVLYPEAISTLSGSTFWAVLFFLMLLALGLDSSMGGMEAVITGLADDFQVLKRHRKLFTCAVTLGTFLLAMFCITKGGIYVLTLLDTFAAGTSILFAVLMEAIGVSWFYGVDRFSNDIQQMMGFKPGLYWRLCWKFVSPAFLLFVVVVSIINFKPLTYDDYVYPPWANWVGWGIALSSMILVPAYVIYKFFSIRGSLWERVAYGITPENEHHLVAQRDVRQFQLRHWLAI

[2] = molecular target: 5-hydroxytryptamine receptor 2A (Rattus norvegicus, UniProt P14842); experiment: Displacement of [3H]-ketanserin from 5-HT2A in rat cerebral cortex incubated for 15 mins by liquid scintillation counting method; format: tissue-based
5-hydroxytryptamine receptor 2A (Rattus norvegicus, UniProt P14842), sequence (P14842 whole entry): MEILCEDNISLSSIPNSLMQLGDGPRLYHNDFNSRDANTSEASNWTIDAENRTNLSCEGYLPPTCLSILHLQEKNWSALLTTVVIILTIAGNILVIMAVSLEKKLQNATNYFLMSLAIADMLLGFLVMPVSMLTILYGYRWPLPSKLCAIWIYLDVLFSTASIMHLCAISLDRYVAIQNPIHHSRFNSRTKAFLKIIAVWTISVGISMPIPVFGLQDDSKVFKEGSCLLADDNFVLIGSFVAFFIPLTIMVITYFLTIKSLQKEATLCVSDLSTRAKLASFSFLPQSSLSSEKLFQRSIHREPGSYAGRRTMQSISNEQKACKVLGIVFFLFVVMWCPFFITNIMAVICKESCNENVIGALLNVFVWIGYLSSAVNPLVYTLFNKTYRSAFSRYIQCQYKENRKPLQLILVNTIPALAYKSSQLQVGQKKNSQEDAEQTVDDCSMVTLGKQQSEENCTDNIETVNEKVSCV

[3] = molecular target: Voltage-gated inwardly rectifying potassium channel KCNH2 (Homo sapiens, UniProt Q12809); experiment: Inhibition of human ERG expressed in HEK293 cells by whole-cell patch clamp method; format: toxicity, cell-based
Voltage-gated inwardly rectifying potassium channel KCNH2, sequence (Q12809 whole entry): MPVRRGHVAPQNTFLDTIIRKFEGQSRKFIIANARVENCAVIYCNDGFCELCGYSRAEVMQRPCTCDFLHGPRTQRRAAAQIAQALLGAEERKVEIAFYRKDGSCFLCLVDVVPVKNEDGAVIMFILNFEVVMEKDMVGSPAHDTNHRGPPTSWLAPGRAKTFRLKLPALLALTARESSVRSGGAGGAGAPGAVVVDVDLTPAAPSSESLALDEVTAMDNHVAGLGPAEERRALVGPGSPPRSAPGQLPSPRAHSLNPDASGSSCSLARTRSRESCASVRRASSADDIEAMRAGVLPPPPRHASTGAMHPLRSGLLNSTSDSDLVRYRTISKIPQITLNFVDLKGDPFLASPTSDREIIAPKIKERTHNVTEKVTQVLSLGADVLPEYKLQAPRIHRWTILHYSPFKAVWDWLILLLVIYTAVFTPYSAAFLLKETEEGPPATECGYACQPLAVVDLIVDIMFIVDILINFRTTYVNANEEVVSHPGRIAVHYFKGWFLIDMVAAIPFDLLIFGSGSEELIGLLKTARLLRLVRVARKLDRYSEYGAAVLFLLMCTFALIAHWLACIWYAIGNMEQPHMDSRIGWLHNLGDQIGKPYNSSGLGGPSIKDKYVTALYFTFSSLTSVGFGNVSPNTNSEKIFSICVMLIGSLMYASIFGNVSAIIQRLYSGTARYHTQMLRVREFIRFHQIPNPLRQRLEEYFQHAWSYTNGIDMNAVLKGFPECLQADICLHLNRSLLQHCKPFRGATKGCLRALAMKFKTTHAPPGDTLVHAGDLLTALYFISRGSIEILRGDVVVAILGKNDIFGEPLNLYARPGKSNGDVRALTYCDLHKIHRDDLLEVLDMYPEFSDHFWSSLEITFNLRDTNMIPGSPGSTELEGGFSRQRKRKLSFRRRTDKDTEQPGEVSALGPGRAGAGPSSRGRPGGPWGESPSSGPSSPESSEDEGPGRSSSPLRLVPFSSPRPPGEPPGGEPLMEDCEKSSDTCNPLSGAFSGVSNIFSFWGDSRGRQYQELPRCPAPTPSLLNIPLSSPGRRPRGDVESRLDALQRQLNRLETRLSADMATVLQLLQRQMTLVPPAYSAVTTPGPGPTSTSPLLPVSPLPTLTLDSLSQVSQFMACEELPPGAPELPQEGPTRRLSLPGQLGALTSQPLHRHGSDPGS

histamine H1 receptor = experiment: Displacement of [3H]-pyrilamine from H1 receptor in guinea pig cerebellum membrane incubated for 60 mins by liquid scintillation counting method; format: toxicity, cell membranes, Cavia porcellus; conditions: probe [3H]-pyrilamine
[4] = molecular target: T1, Alpha-1A adrenergic receptor (Rattus norvegicus, UniProt P43140); experiment: Displacement of [3H]-prazosin from adrenergic alpha-1 receptor in rat cerebral cortex incubated for 60 mins by liquid scintillation counting method; format: toxicity, tissue-based
T1 sequence (P43140 whole entry): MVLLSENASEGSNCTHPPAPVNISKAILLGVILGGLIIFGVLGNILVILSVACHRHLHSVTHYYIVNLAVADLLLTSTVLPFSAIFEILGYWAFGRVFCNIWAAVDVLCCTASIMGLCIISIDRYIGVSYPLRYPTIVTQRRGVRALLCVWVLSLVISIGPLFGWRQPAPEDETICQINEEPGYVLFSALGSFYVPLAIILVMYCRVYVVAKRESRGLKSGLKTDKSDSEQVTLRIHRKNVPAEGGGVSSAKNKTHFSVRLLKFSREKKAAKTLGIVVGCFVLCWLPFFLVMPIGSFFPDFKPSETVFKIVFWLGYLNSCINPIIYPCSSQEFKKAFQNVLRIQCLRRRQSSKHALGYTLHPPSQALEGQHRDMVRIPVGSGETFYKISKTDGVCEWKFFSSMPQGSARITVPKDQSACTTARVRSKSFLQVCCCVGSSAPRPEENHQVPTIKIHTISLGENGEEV

[5] = molecular target: T2, 5-hydroxytryptamine receptor 2C (Rattus norvegicus, UniProt P08909); experiment: Displacement of [3H]-mesulergine from 5-HT2C in rat cerebral cortex incubated for 15 mins by liquid scintillation counting method; format: tissue-based
T2 sequence (P08909 whole entry): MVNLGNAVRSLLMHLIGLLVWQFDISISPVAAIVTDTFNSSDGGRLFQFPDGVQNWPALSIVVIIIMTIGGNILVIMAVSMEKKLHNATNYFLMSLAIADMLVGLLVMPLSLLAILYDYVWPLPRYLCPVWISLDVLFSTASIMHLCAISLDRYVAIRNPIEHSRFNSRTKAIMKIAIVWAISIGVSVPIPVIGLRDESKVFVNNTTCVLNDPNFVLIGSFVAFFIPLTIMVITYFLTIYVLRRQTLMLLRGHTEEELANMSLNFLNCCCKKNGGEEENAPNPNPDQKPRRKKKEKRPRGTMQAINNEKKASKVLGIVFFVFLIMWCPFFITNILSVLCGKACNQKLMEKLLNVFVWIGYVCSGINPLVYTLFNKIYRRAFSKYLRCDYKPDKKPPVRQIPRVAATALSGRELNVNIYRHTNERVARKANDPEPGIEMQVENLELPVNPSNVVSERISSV

[6] = molecular target: T3, 5-hydroxytryptamine receptor 2A (Homo sapiens, UniProt P28223); experiment: Agonist activity at 5-HT2A in HEK293 cells at 10 uM incubated for 60 mins by FLIPR assay relative to control; format: functional, cell-based
T3 sequence (P28223 whole entry): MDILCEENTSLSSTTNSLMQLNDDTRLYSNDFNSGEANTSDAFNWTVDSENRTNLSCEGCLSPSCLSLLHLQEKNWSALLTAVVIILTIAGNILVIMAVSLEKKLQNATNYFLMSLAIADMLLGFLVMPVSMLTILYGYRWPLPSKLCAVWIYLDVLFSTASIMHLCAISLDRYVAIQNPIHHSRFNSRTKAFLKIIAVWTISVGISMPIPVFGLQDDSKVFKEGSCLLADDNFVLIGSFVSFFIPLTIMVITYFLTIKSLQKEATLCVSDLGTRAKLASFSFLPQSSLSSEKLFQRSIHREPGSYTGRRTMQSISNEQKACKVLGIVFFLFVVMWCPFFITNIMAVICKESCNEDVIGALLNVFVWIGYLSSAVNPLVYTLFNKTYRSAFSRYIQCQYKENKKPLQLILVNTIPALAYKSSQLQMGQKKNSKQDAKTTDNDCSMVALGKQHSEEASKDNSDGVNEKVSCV

[7] = molecular target: T3, 5-hydroxytryptamine receptor 2A; experiment: Antagonist activity at 5-HT2A in HEK293 cells at 10 uM incubated for 60 mins by FLIPR assay relative to control; format: cell-based; design: scale not given: the % may be the effect or the level left; conditions: filed as antagonist
[8] = molecular target: 5-hydroxytryptamine receptor 2C (Homo sapiens, UniProt P28335); experiment: Antagonist activity at 5-HT2C in HEK293 cells incubated for 60 mins by FLIPR assay; format: cell-based
[9] = molecular target: T4, 5-hydroxytryptamine receptor 2C (Homo sapiens) (UniProt P28335); experiment: Antagonist activity at 5-HT2C in HEK293 cells at 10 uM incubated for 60 mins by FLIPR assay relative to control; format: cell-based; design: scale not given: the % may be the effect or the level left; conditions: filed as antagonist
T4 sequence (whole entry): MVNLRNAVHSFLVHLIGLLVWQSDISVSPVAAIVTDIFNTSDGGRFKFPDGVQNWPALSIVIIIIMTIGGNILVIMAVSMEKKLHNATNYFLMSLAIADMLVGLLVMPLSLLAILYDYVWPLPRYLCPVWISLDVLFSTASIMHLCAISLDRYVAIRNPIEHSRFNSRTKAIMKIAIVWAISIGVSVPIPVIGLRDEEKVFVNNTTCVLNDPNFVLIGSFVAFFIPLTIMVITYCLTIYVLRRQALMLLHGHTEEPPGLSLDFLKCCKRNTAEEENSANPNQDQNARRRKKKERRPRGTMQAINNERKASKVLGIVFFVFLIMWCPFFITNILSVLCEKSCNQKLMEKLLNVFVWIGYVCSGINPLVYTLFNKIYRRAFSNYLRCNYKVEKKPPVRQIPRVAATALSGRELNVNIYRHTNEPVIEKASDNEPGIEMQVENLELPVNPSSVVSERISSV

[10] = molecular target: Sodium-dependent serotonin transporter (Rattus norvegicus) (UniProt P31652); experiment: Antagonist activity at rat cerebral cortex membrane SERT at 10 uM incubated for 10 mins in presence of [3H]5-HT relative to control; format: cell membranes; design: scale not given: the % may be the effect or the level left; conditions: filed as antagonist
Sodium-dependent serotonin transporter (Rattus norvegicus), sequence (P31652 whole entry): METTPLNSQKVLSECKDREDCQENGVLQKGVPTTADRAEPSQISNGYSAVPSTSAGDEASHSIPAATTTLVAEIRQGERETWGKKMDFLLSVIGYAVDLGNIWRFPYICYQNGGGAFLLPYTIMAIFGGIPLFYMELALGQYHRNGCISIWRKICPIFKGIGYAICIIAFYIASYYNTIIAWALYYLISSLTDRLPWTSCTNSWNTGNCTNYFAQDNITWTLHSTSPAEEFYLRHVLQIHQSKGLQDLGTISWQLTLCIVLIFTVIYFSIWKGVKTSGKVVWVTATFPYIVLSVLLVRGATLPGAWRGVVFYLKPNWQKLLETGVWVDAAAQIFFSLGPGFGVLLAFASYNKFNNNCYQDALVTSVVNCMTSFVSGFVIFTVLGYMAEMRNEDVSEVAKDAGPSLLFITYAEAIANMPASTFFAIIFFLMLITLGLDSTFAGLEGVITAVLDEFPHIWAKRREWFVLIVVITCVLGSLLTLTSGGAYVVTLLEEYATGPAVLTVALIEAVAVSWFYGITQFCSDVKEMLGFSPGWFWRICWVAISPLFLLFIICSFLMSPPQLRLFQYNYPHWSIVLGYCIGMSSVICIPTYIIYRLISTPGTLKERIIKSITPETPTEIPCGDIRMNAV

Sodium-dependent serotonin transporter, sequence (P31652 whole entry): as above

Structure (SMILES)	Ki [1] [nM]	Ki (Transporter) [nM]	further results
CNCCC(Oc1cccc2c1OCO2)c1ccc(F)cc1 (stereo unspecified)	68.6	5.4	
CNCCC(Oc1cccc2c1OCO2)c1ccccc1C (stereo unspecified)	41.2	13.9	
COc1ccccc1C(CCN(C)C)Oc1cccc2c1OCO2 (stereo unspecified)	221	253	
CNCCC(Oc1cccc2c1OCO2)c1cccc(F)c1 (stereo unspecified)	59.3	7.5	
CN(C)CCC(Oc1cccc2c1OCO2)c1ccc(F)cc1 (stereo unspecified)	4.2	2.8	Ki [2]: 35.3 nM; IC50 [3]: 1110 nM; Ki at 60 min (histamine H1 receptor): 937 nM; Ki [4]: 1240 nM; Ki [5]: 29.6 nM
NCCc1c[nH]c2ccc(O)cc12			Activity [6]: 5.6%
COc1ccc(C(CCN(C)C)Oc2cccc3c2OCO3)cc1OC (stereo unspecified)	245	222	
O=C(c1ccc(F)cc1)C1CCN(CCn2c(=O)[nH]c3ccccc3c2=O)CC1			Activity [7]: 98.3%
CNCCC(Oc1cccc2c1OCO2)c1ccc(OC)c(OC)c1 (stereo unspecified)	217	19.9	
CN(C)CCC(Oc1cccc2c1OCO2)c1ccccc1Cl (stereo unspecified)	29.7	19.5	
Cc1cc2c(cc1Cl)N(C(=O)Nc1ccc(Oc3cccnc3C)nc1)CC2 [SB-242084]			IC50 [8]: 19.7 nM; Activity [9]: 98.6%
CNCCC(Oc1cccc2c1OCO2)c1ccccc1 (stereo unspecified)	19.8	4.2	Ki [2]: 156 nM; IC50 [3]: 818 nM; Ki at 60 min (histamine H1 receptor): 669 nM; Ki [4]: 992 nM; Ki [5]: 134 nM
CN(C)CCC(Oc1cccc2c1OCO2)c1ccc2c(c1)OCO2 (stereo unspecified)	9.5	4.9	Ki [2]: 55.1 nM; IC50 [3]: 371 nM; Ki at 60 min (histamine H1 receptor): 426 nM; Ki [4]: 134 nM; Ki [5]: 105 nM
COc1cccc(C(CCN(C)C)Oc2cccc3c2OCO3)c1 (stereo unspecified)	203	268	
CNCCC(Oc1cccc2c1OCO2)c1cccc(C)c1 (stereo unspecified)	50.6	20.4	
CNCCC(Oc1cccc2c1OCO2)c1ccccc1F (stereo unspecified)	84.9	20.5	
CN(C)CCC(Oc1cccc2c1OCO2)c1cccc(Cl)c1 (stereo unspecified)	103	70.4	
CNCCC(Oc1cccc2c1OCO2)c1ccc2c(c1)OCO2 (stereo unspecified)	32.8	28.4	
CNCCC(Oc1cccc2c1OCO2)c1ccccc1OC (stereo unspecified)	64.2	30.2	
CNCCC(Oc1cccc2c1OCO2)c1ccc(F)c(F)c1 (stereo unspecified)	96.3	6.6	
CN(C)CC[C@H](Oc1cccc2c1OCO2)c1ccc(F)cc1	3.3	12.7	Ki [2]: 57.7 nM; IC50 [3]: 907 nM; Ki at 60 min (histamine H1 receptor): 823 nM; Ki [4]: 988 nM; Ki [5]: 71.2 nM

Structure (SMILES)	Ki [1] [nM]	Ki (Transporter) [nM]	further results
Cc1cccc(C(CCN(C)C)Oc2cccc3c2OCO3)c1 (stereo unspecified)	159	214	
CN(C)CCCC1(c2ccc(F)cc2)OCc2cc(C#N)ccc21 (stereo unspecified)			Activity [10]: 100%
CNCCC(Oc1cccc2c1OCO2)c1ccc(OC)cc1 (stereo unspecified)	109	25.5	
CN(C)CCC(Oc1cccc2c1OCO2)c1ccc(F)c(F)c1 (stereo unspecified)	237	139	
CNCCC(Oc1cccc2c1OCO2)c1ccc(Cl)cc1 (stereo unspecified)	77.3	14.8	
CN(C)CCC(Oc1cccc2c1OCO2)c1ccccc1 (stereo unspecified)	98.4	29.4	
COc1ccc(C(CCN(C)C)Oc2cccc3c2OCO3)cc1 (stereo unspecified)	189	218	
CNCCC(Oc1cccc2c1OCO2)c1ccc(Cl)c(Cl)c1 (stereo unspecified)	43.6	15	
Cc1ccc(C(CCN(C)C)Oc2cccc3c2OCO3)cc1 (stereo unspecified)	69.7	195	
CNCCC(Oc1cccc2c1OCO2)c1ccc(C)cc1 (stereo unspecified)	17.4	48.8	
NCCC(Oc1cccc2c1OCO2)c1ccccc1 (stereo unspecified)	217	51	
CN(C)CCC(Oc1cccc2c1OCO2)c1ccc(C(F)(F)F)cc1 (stereo unspecified)	182	124	
CNCCC(Oc1cccc2c1OCO2)c1cccc(Cl)c1 (stereo unspecified)	112	4.8	
CNCCC(Oc1cccc2c1OCO2)c1ccc(C(F)(F)F)cc1 (stereo unspecified)	74.1	31.1	
CN(C)CCC(Oc1cccc2c1OCO2)c1ccc(Cl)cc1 (stereo unspecified)	19.9	10.4	
CN(C)CCC(Oc1cccc2c1OCO2)c1ccc(Cl)c(Cl)c1 (stereo unspecified)	189	253	
CNCCC(Oc1cccc2c1OCO2)c1cccc(OC)c1 (stereo unspecified)	48.2	11.1	
CN(C)CCC(Oc1cccc2c1OCO2)c1ccccc1F (stereo unspecified)	28	17.2	
Cc1ccccc1C(CCN(C)C)Oc1cccc2c1OCO2 (stereo unspecified)	157	247	
CNCCC(Oc1cccc2c1OCO2)c1ccccc1Cl (stereo unspecified)	57.4	26.6	
CN(C)CCC(Oc1cccc2c1OCO2)c1cccc(F)c1 (stereo unspecified)	15.1	3	Ki [2]: 89.3 nM; IC50 [3]: 940 nM; Ki at 60 min (histamine H1 receptor): 549 nM; Ki [4]: 1130 nM; Ki [5]: 63.4 nM

— ChEMBL document CHEMBL6083240, “Design, synthesis and biological evaluation of arylpropylamine derivatives as potential multi-target antidepressants” (Bioorg Med Chem, 2024)
